# Experimental data taken from ChEMBL document CHEMBL4177730, “Rational modification of semaxanib and sunitinib for developing a tumor growth inhibitor targeting ATP binding site of tyrosine kinase” (2018).
# The source made the active and inactive calls. The rule behind the calls is not given here.
# Tests used:
# [1] = test system: SN12C; test: Growth inhibition of human SN12C cells at 10 uM after 48 hrs by sulforhodamine B assay; format: functional, cell-based
# [2] = test system: SR; test: Growth inhibition of human SR cells at 10 uM after 48 hrs by sulforhodamine B assay; format: functional, cell-based
# [3] = test system: UACC-62; test: Growth inhibition of human UACC62 cells after 48 hrs by sulforhodamine B assay; format: functional; conditions: UACC-62, 48 h
# [4] = test system: MDA-MB-468; test: Growth inhibition of human MDA-MB-468 cells after 48 hrs by sulforhodamine B assay; format: functional; conditions: MDA-MB-468, 48 h
# [5] = test system: MOLT-4; test: Growth inhibition of human MOLT4 cells at 10 uM after 48 hrs by sulforhodamine B assay; format: functional, cell-based
# [6] = test system: OVCAR-8; test: Growth inhibition of human OVCAR8 cells after 48 hrs by sulforhodamine B assay; format: functional; conditions: OVCAR-8, 48 h
# [7] = test system: SF-539; test: Growth inhibition of human SF539 cells after 48 hrs by sulforhodamine B assay; format: functional; conditions: SF-539, 48 h
# [8] = test system: HOP-62; test: Growth inhibition of human HOP62 cells after 48 hrs by sulforhodamine B assay; format: functional; conditions: HOP-62, 48 h
# [9] = test system: HT-29; test: Growth inhibition of human HT-29 cells at 10 uM after 48 hrs by sulforhodamine B assay; format: functional, cell-based
# [10] = test system: HCT-116; test: Growth inhibition of human HCT116 cells at 10 uM after 48 hrs by sulforhodamine B assay; format: functional, cell-based
# [11] = test system: HOP-92; test: Growth inhibition of human HOP92 cells at 10 uM after 48 hrs by sulforhodamine B assay; format: functional, cell-based
# [12] = test system: DU-145; test: Growth inhibition of human DU145 cells at 10 uM after 48 hrs by sulforhodamine B assay; format: functional, cell-based
# [13] = test system: HCT-116; test: Growth inhibition of human HCT116 cells after 48 hrs by sulforhodamine B assay; format: functional; conditions: HCT-116, 48 h
# [14] = test system: IGROV-1; test: Growth inhibition of human IGROV1 cells after 48 hrs by sulforhodamine B assay; format: functional; conditions: IGROV-1, 48 h
# [15] = test system: DU-145; test: Growth inhibition of human DU145 cells after 48 hrs by sulforhodamine B assay; format: functional; conditions: DU-145, 48 h
# [16] = test system: NCI-H322M; test: Growth inhibition of human NCI-H322M cells at 10 uM after 48 hrs by sulforhodamine B assay; format: functional, cell-based
# [17] = test system: M14; test: Growth inhibition of human M14 cells at 10 uM after 48 hrs by sulforhodamine B assay; format: functional, cell-based
# [18] = test system: NCI/ADR-RES; test: Growth inhibition of human NCI-ADR-RES cells at 10 uM after 48 hrs by sulforhodamine B assay; format: functional, cell-based
# [19] = test system: SK-MEL-28; test: Growth inhibition of human SK-MEL-28 cells after 48 hrs by sulforhodamine B assay; format: functional; conditions: SK-MEL-28, 48 h
# [20] = test system: CAKI-1; test: Growth inhibition of human CAKI-1 cells after 48 hrs by sulforhodamine B assay; format: functional; conditions: CAKI-1, 48 h
# [21] = test system: OVCAR-8; test: Growth inhibition of human OVCAR8 cells at 10 uM after 48 hrs by sulforhodamine B assay; format: functional, cell-based
# [22] = test system: IGROV-1; test: Growth inhibition of human IGROV1 cells at 10 uM after 48 hrs by sulforhodamine B assay; format: functional, cell-based
# [23] = test system: SW-620; test: Growth inhibition of human SW620 cells at 10 uM after 48 hrs by sulforhodamine B assay; format: functional, cell-based
# [24] = test system: MDA-MB-231; test: Growth inhibition of human MDA-MB-231 cells after 48 hrs by sulforhodamine B assay; format: functional; conditions: MDA-MB-231, 48 h
# [25] = test system: MDA-MB-468; test: Growth inhibition of human MDA-MB-468 cells at 10 uM after 48 hrs by sulforhodamine B assay; format: functional, cell-based
# [26] = test system: SF-268; test: Growth inhibition of human SF268 cells at 10 uM after 48 hrs by sulforhodamine B assay; format: functional, cell-based
# [27] = test system: SK-MEL-5; test: Growth inhibition of human SK-MEL-5 cells after 48 hrs by sulforhodamine B assay; format: functional; conditions: SK-MEL-5, 48 h
# [28] = test system: SK-MEL-2; test: Growth inhibition of human SK-MEL-2 cells after 48 hrs by sulforhodamine B assay; format: functional; conditions: SK-MEL-2, 48 h
# [29] = test system: OVCAR-5; test: Growth inhibition of human OVCAR5 cells after 48 hrs by sulforhodamine B assay; format: functional; conditions: OVCAR-5, 48 h
# [30] = test system: HCC 2998; test: Growth inhibition of human HCC2998 cells after 48 hrs by sulforhodamine B assay; format: functional; conditions: HCC 2998, 48 h
# [31] = test system: UACC-62; test: Growth inhibition of human UACC62 cells at 10 uM after 48 hrs by sulforhodamine B assay; format: functional, cell-based
# [32] = test system: EKVX; test: Growth inhibition of human EKVX cells at 10 uM after 48 hrs by sulforhodamine B assay; format: functional, cell-based
# [33] = test system: SF-295; test: Growth inhibition of human SF295 cells after 48 hrs by sulforhodamine B assay; format: functional; conditions: SF-295, 48 h
# [34] = test system: COLO 205; test: Growth inhibition of human COLO205 cells after 48 hrs by sulforhodamine B assay; format: functional; conditions: COLO 205, 48 h
# [35] = test system: NCI/ADR-RES; test: Growth inhibition of human NCI-ADR-RES cells after 48 hrs by sulforhodamine B assay; format: functional
# [36] = test system: UO-31; test: Growth inhibition of human UO31 cells after 48 hrs by sulforhodamine B assay; format: functional; conditions: UO-31, 48 h
# [37] = test system: NCI-H460; test: Growth inhibition of human NCI-H460 cells at 10 uM after 48 hrs by sulforhodamine B assay; format: functional, cell-based
# [38] = test system: T47D; test: Growth inhibition of human T47D cells at 10 uM after 48 hrs by sulforhodamine B assay; format: functional, cell-based
# [39] = test system: RPMI-8226; test: Growth inhibition of human RPMI8226 cells at 10 uM after 48 hrs by sulforhodamine B assay; format: functional, cell-based
# [40] = read-out: LC50 (the source's name)
smiles,measurement,setting,value
O=C1/C(=C\c2cccn2Cc2ccccc2)c2ccccc2N1c1c(Cl)cccc1Cl,growth inhibition (GI),[1],Active
same,growth inhibition (GI),[2],Active
same,GI50,[3],2.08 µM
same,TGI,[3],> 100 µM
same,CC50,[3]; [40],> 100 µM
same,GI50,[4],0.063 µM
same,TGI,[4],0.28 µM
same,CC50,[4]; [40],1.38 µM
same,growth inhibition (GI),[5],Active
same,GI50,[6],> 100 µM
same,TGI,[6],> 100 µM
same,CC50,[6]; [40],> 100 µM
same,GI50,[7],> 100 µM
same,TGI,[7],> 100 µM
same,CC50,[7]; [40],> 100 µM
same,GI50,[8],> 100 µM
same,TGI,[8],> 100 µM
same,CC50,[8]; [40],> 100 µM
same,growth inhibition (GI),[9],Active
same,growth inhibition (GI),[10],Active
same,growth inhibition (GI),[11],Active
same,growth inhibition (GI),[12],Active
same,GI50,[13],3.38 µM
same,TGI,[13],> 100 µM
same,CC50,[13]; [40],> 100 µM
same,GI50,[14],0.54 µM
same,TGI,[14],> 100 µM
same,CC50,[14]; [40],> 100 µM
same,GI50,[15],> 100 µM
same,TGI,[15],> 100 µM
same,CC50,[15]; [40],> 100 µM
same,growth inhibition (GI),[16],Active
same,growth inhibition (GI),[17],Active
same,growth inhibition (GI),[18],Active
same,GI50,[19],> 100 µM
same,TGI,[19],> 100 µM
same,CC50,[19]; [40],> 100 µM
same,GI50,[20],8.31 µM
same,TGI,[20],> 100 µM
same,CC50,[20]; [40],> 100 µM
same,growth inhibition (GI),[21],Active
same,growth inhibition (GI),[22],Active
same,growth inhibition (GI),[23],Active
same,GI50,[24],5.88 µM
same,TGI,[24],> 100 µM
same,CC50,[24]; [40],> 100 µM
same,growth inhibition (GI),[25],Active
same,growth inhibition (GI),[26],Active
same,GI50,[27],2.13 µM
same,TGI,[27],> 100 µM
same,CC50,[27]; [40],> 100 µM
same,GI50,[28],2.23 µM
same,TGI,[28],> 100 µM
same,CC50,[28]; [40],> 100 µM
same,GI50,[29],3.89 µM
same,TGI,[29],> 100 µM
same,CC50,[29]; [40],> 100 µM
same,GI50,[30],0.87 µM
same,TGI,[30],> 100 µM
same,CC50,[30]; [40],> 100 µM
same,growth inhibition (GI),[31],Active
same,growth inhibition (GI),[32],Active
same,GI50,[33],> 100 µM
same,TGI,[33],> 100 µM
same,CC50,[33]; [40],> 100 µM
same,GI50,[34],1.04 µM
same,TGI,[34],9.33 µM
same,CC50,[34]; [40],> 100 µM
same,GI50,[35],> 100 µM
same,TGI,[35],> 100 µM
same,CC50,[35]; [40],> 100 µM
same,GI50,[36],3.16 µM
same,TGI,[36],> 100 µM
same,CC50,[36]; [40],> 100 µM
same,growth inhibition (GI),[37],Active
same,growth inhibition (GI),[38],Active
same,growth inhibition (GI),[39],Active
